In ChEMBL document CHEMBL4507293 (2021):

Columns and labels:
[1] = biological target: Receptor tyrosine-protein kinase erbB-4 (Homo sapiens) (UniProt Q15303); settings: Compound concentration 100.0 nM
[2] = biological target: Vascular endothelial growth factor receptor 3 (Homo sapiens) (UniProt P35916); settings: Compound concentration 100.0 nM
[3] = biological target: Cytoplasmic tyrosine-protein kinase BMX (Homo sapiens) (UniProt P51813); settings: Compound concentration 100.0 nM
[4] = biological target: Serine/threonine-protein kinase Sgk2 (Homo sapiens) (UniProt Q9HBY8); settings: Compound concentration 100.0 nM
[5] = biological target: Cyclin-dependent kinase 4 (Homo sapiens) (UniProt P11802); settings: Compound concentration 100.0 nM
[6] = biological target: Dual specificity mitogen-activated protein kinase kinase 1 (Homo sapiens) (UniProt Q02750); settings: Compound concentration 100.0 nM
[7] = biological target: Mitogen-activated protein kinase kinase kinase 10 (Homo sapiens) (UniProt Q02779); settings: Compound concentration 100.0 nM
[8] = biological target: Proto-oncogene tyrosine-protein kinase receptor Ret (Homo sapiens) (UniProt P07949); settings: Compound concentration 100.0 nM
[9] = biological target: Mitogen-activated protein kinase 1 (Homo sapiens) (UniProt P28482); settings: Compound concentration 100.0 nM
[10] = system: Tyrosine-protein kinase ABL1 (Homo sapiens), P00519 [F317L]; settings: Compound concentration 100.0 nM
[11] = biological target: Focal adhesion kinase 1 (Homo sapiens) (UniProt Q05397); settings: Compound concentration 100.0 nM
[12] = biological target: Serine/threonine-protein kinase Nek4 (Homo sapiens) (UniProt P51957); settings: Compound concentration 100.0 nM
[13] = biological target: Calcium/calmodulin-dependent protein kinase type 1G (Homo sapiens) (UniProt Q96NX5); settings: Compound concentration 100.0 nM
[14] = biological target: Mitogen-activated protein kinase 6 (Homo sapiens) (UniProt Q16659); settings: Compound concentration 100.0 nM
[15] = biological target: Receptor tyrosine-protein kinase erbB-3 (Homo sapiens) (UniProt P21860); settings: Compound concentration 100.0 nM
[16] = system: Tyrosine-protein kinase ABL1 (Homo sapiens), P00519 [H396P]; settings: Compound concentration 100.0 nM
[17] = biological target: D(4) dopamine receptor (Homo sapiens) (UniProt P21917); settings: Compound concentration 10.0 uM
[18] = biological target: Ephrin type-A receptor 5 (Homo sapiens) (UniProt P54756); settings: Compound concentration 100.0 nM
[19] = biological target: Serine/threonine-protein kinase 3 (Homo sapiens) (UniProt Q13188); settings: Compound concentration 100.0 nM
[20] = biological target: Phosphatidylinositol 4-phosphate 3-kinase C2 domain-containing subunit beta (Homo sapiens) (UniProt O00750); settings: Compound concentration 100.0 nM
[21] = biological target: Dual specificity tyrosine-phosphorylation-regulated kinase 1A (Homo sapiens) (UniProt Q13627); settings: Compound concentration 100.0 nM
[22] = biological target: T1, Muscarinic acetylcholine receptor M2 (Homo sapiens) (UniProt P08172); settings: Compound concentration 10.0 uM
T1 sequence (whole entry): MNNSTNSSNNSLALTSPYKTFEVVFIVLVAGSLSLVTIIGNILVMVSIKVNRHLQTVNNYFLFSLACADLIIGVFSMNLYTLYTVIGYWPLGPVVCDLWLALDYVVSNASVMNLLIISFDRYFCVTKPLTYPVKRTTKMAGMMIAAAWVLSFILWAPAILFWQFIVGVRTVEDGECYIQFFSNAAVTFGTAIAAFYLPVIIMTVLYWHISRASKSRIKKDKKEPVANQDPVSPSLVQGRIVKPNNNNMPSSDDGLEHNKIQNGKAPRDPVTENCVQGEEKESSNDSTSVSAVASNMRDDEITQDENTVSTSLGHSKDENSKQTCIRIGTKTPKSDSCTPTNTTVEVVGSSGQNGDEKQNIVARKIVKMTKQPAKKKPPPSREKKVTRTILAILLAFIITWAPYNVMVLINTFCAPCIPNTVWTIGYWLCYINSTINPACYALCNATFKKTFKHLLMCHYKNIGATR

[23] = biological target: Calcium/calmodulin-dependent protein kinase kinase 2 (Homo sapiens) (UniProt Q96RR4); settings: Compound concentration 100.0 nM
[24] = biological target: Serine/threonine-protein kinase DCLK2 (Homo sapiens) (UniProt Q8N568); settings: Compound concentration 100.0 nM
[25] = biological target: Ephrin type-A receptor 3 (Homo sapiens) (UniProt P29320); settings: Compound concentration 100.0 nM
[26] = biological target: MAP/microtubule affinity-regulating kinase 3 (Homo sapiens) (UniProt P27448); settings: Compound concentration 100.0 nM
[27] = biological target: 5-hydroxytryptamine receptor 7 (Homo sapiens, UniProt P34969); settings: Compound concentration 10.0 uM
[28] = biological target: Serine/threonine-protein kinase NIM1 (Homo sapiens) (UniProt Q8IY84); settings: Compound concentration 100.0 nM
[29] = system: Epidermal growth factor receptor (Homo sapiens), P00533 [L861Q]; settings: Compound concentration 100.0 nM
[30] = biological target: cGMP-inhibited 3',5'-cyclic phosphodiesterase 3A (Homo sapiens, UniProt Q14432); assay: Biochemical assay (PDE3A)
[31] = system: Phosphatidylinositol 4,5-bisphosphate 3-kinase catalytic subunit alpha isoform (Homo sapiens), P42336 [H1047Y]; settings: Compound concentration 100.0 nM
[32] = biological target: LIM domain kinase 1 (Homo sapiens) (UniProt P53667); settings: Compound concentration 100.0 nM
[33] = biological target: Protein kinase C theta type (Homo sapiens) (UniProt Q04759); settings: Compound concentration 100.0 nM
[34] = biological target: Homeodomain-interacting protein kinase 1 (Homo sapiens) (UniProt Q86Z02); settings: Compound concentration 100.0 nM
[35] = biological target: Mitogen-activated protein kinase 3 (Homo sapiens) (UniProt P27361); settings: Compound concentration 100.0 nM
[36] = biological target: Cyclin-dependent kinase 19 (Homo sapiens) (UniProt Q9BWU1); settings: Compound concentration 100.0 nM
[37] = biological target: Serine/threonine-protein kinase pim-3 (Homo sapiens) (UniProt Q86V86); settings: Compound concentration 100.0 nM
[38] = biological target: Tyrosine-protein kinase receptor Tie-1 (Homo sapiens) (UniProt P35590); settings: Compound concentration 100.0 nM
[39] = biological target: Ribosomal protein S6 kinase alpha-5 (Homo sapiens) (UniProt O75582); settings: Compound concentration 100.0 nM
Ribosomal protein S6 kinase alpha-5 (Homo sapiens), sequence (O75582 whole entry, looked up): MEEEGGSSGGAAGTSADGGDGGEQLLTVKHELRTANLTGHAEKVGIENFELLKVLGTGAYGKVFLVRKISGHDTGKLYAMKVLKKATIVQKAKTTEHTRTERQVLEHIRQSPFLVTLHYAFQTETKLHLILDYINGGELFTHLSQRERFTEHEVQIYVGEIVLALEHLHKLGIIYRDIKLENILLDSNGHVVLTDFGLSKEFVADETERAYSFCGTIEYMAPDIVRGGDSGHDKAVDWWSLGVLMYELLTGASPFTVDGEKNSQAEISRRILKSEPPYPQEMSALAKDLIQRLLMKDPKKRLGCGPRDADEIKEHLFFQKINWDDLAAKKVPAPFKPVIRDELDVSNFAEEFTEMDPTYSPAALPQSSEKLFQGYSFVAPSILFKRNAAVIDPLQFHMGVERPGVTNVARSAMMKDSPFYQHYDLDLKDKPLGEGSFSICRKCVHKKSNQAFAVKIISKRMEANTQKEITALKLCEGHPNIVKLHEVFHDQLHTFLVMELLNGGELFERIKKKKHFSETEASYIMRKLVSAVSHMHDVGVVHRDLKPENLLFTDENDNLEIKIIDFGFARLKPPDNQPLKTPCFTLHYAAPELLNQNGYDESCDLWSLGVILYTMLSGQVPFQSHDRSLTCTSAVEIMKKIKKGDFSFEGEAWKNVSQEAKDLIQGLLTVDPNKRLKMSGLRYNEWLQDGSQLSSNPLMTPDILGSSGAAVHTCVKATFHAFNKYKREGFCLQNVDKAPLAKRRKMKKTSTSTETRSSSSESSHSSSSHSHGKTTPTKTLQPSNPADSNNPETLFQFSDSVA

Protein kinase C theta type (Homo sapiens), sequence (Q04759 whole entry, looked up): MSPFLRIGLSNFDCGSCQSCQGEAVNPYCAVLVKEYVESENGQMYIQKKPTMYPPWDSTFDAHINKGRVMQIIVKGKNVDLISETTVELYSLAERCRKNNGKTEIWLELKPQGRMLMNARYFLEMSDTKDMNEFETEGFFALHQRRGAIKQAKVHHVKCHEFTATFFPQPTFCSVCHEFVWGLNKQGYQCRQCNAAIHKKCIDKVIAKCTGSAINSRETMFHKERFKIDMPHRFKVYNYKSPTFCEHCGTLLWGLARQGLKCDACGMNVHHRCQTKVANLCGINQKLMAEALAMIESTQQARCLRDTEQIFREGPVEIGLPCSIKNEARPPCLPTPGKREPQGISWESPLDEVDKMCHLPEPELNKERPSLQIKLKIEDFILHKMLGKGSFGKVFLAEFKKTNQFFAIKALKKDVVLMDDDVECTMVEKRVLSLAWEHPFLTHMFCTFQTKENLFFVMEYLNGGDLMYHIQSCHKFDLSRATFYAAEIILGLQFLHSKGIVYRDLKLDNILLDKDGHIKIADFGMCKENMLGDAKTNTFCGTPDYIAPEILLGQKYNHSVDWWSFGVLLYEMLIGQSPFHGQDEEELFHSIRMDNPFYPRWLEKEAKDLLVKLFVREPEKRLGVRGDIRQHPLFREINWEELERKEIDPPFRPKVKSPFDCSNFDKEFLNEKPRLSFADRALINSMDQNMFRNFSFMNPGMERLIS
5-hydroxytryptamine receptor 7, sequence (P34969 whole entry): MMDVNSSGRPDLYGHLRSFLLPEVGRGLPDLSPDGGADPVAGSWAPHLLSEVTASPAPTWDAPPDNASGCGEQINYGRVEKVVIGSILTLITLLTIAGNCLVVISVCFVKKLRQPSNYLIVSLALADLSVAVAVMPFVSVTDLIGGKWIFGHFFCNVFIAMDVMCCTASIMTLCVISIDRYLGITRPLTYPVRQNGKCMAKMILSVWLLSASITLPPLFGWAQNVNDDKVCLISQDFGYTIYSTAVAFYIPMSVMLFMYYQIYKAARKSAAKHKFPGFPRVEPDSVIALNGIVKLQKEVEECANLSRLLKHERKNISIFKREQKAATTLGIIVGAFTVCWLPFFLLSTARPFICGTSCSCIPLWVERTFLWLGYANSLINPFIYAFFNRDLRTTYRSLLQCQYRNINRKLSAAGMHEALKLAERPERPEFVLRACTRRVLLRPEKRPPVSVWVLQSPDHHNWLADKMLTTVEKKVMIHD
cGMP-inhibited 3',5'-cyclic phosphodiesterase 3A, sequence (Q14432 whole entry, canonical isoform): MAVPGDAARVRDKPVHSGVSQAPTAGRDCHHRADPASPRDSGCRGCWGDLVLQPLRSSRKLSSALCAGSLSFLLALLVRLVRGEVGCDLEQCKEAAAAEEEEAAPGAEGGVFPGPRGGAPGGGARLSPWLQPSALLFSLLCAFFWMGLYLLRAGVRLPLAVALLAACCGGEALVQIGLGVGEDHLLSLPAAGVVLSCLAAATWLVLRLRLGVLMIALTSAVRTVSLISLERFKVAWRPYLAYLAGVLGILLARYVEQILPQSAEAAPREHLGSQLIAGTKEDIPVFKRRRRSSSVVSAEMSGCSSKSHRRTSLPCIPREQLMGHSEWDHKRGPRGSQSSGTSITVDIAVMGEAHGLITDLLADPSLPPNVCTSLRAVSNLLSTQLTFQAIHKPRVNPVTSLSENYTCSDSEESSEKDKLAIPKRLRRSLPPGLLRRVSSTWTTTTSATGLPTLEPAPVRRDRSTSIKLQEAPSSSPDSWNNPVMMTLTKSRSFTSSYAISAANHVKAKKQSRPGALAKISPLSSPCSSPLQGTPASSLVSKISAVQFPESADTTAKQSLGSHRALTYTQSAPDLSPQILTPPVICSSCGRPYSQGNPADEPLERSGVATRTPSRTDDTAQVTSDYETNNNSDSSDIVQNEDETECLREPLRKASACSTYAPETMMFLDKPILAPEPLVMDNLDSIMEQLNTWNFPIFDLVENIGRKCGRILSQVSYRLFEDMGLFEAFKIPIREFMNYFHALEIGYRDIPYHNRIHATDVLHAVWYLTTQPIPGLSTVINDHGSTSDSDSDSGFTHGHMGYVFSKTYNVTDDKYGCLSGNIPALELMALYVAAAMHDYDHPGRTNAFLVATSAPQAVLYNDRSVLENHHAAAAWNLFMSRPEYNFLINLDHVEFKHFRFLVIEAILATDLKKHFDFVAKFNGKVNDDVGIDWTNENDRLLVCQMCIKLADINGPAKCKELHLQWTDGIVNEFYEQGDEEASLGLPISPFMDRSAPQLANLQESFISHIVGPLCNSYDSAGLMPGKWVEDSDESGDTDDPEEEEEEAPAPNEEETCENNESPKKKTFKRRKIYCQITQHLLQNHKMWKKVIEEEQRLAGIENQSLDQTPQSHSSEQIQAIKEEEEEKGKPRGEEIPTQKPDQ
Serine/threonine-protein kinase DCLK2 (Homo sapiens), sequence (Q8N568 whole entry): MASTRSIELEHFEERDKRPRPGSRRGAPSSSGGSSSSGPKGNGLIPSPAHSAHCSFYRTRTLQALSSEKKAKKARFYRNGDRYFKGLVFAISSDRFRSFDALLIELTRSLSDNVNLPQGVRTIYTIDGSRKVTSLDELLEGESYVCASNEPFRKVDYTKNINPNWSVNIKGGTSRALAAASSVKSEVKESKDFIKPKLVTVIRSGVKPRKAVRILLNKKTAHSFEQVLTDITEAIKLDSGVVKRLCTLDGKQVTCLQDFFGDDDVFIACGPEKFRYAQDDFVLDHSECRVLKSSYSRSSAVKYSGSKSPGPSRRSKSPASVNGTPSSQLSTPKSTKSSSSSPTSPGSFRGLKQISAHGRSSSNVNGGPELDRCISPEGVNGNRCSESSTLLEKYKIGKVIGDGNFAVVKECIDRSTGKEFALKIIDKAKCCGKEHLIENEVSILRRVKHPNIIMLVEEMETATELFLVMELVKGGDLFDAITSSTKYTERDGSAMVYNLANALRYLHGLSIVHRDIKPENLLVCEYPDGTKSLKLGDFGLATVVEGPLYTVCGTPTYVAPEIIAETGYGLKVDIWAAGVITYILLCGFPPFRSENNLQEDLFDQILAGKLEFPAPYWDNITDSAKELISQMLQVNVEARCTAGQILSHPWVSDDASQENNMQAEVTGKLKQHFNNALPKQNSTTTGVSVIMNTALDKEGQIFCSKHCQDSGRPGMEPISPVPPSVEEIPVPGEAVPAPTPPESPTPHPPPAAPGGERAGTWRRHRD
Calcium/calmodulin-dependent protein kinase type 1G (Homo sapiens), sequence (Q96NX5 whole entry): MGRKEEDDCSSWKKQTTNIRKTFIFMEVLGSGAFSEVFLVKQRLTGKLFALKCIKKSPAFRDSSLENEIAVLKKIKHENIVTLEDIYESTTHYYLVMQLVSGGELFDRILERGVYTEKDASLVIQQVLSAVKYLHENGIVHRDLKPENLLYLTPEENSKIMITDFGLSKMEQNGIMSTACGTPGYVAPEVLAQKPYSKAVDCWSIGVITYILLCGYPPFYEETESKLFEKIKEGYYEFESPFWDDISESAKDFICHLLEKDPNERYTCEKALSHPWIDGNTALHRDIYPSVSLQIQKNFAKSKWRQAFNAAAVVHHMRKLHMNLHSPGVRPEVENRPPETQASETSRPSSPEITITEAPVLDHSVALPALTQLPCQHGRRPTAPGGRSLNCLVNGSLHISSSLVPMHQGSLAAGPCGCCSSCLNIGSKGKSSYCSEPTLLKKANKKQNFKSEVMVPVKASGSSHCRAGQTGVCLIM
Cyclin-dependent kinase 19 (Homo sapiens), sequence (Q9BWU1 whole entry): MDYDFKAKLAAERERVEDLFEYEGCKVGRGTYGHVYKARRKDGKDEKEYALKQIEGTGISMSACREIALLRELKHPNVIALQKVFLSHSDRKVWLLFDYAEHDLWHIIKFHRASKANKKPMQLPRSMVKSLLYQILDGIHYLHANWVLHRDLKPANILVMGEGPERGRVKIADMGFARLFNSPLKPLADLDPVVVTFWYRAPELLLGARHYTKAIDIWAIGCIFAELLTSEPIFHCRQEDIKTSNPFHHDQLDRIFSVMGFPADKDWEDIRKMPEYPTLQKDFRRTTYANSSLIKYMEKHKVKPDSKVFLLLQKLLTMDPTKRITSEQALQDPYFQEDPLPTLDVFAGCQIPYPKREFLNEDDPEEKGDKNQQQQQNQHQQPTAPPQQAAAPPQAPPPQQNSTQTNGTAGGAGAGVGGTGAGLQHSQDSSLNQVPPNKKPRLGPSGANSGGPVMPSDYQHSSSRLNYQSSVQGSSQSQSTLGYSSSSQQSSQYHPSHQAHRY

Compound | residual activity [1] [%] | residual activity [2] [%] | residual activity [3] [%] | residual activity [4] [%] | residual activity [5] [%] | residual activity [6] [%] | residual activity [7] [%] | residual activity [8] [%] | residual activity [9] [%] | residual activity [10] [%] | residual activity [11] [%] | residual activity [12] [%] | residual activity [13] [%] | residual activity [14] [%] | residual activity [15] [%] | residual activity [16] [%] | inhibition [17] [%] | residual activity [18] [%] | residual activity [19] [%] | residual activity [20] [%] | other results
CC(C)CC(=O)N1CCc2nc(-c3ccc(Br)cc3)nc(N(C)Cc3ccccc3)c2C1 [THPP-1-NC] | 94 | 100 | 100 | 94 | 93 | 100 | 96 | 68 | 93 | 100 | 92 | 100 | 100 | 100 | 73 | 100 | 7.93 | 89 | 100 | 100 | residual activity [21]: 78%; inhibition [22]: 18.2%; residual activity [23]: 100%; residual activity [24]: 100%; residual activity [25]: 100%; residual activity [26]: 100%; inhibition [27]: 64.5%; residual activity [28]: 100%; residual activity [29]: 100%; Ki [30]: > 50 µM (not active); residual activity [31]: 76%; residual activity [32]: 100%; residual activity [33]: 100%; residual activity [34]: 64%; residual activity [35]: 88%; residual activity [36]: 62%; residual activity [37]: 100%; residual activity [38]: 100%; residual activity [39]: 100%
COCCOc1nc(-c2ccc(Cl)nc2)nc2c1CN(C(=O)c1ncn3ccccc13)CC2 [THPP-1] | 80 | 88 | 100 | 88 | 100 | 100 | 100 | 88 | 95 | 100 | 99 | 100 | 100 | 100 | 65 | 100 | 15.7 | 99 | 100 | 100 | residual activity [21]: 78%; inhibition [22]: 19.3%; residual activity [23]: 100%; residual activity [24]: 100%; residual activity [25]: 96%; residual activity [26]: 100%; inhibition [27]: 42.3%; residual activity [28]: 100%; residual activity [29]: 99%; Ki [30]: 3.3 µM (not active); residual activity [31]: 79%; residual activity [32]: 100%; residual activity [33]: 100%; residual activity [34]: 90%; residual activity [35]: 89%; residual activity [36]: 63%; residual activity [37]: 100%; residual activity [38]: 100%; residual activity [39]: 100%
